This note sets out measurements from patent US12550898B2, “Herbicide combinations comprising glufosinate and carfentrazone-ethyl” (BASF SE, priority 2020, dated 2026).

The subject of one test is Echinochloa crus-galli. The experiment in a line: Greenhouse post-emergence herbicidal activity on Echinochloa crus-galli. The class given is in vivo. The conditions noted are these: 0.654 g ai/ha, scale 0-100, AMS + NIS added. From the text: (§1) For the post-emergence treatment, the test plants were first grown to 3 to 4 inch (7.6 to 10.2 cm) tall, and only then treated. Here, the herbicidal compositions were suspended or emulsified in water as distribution medium and sprayed using finely distributing nozzles.
(§2) The herbicide compounds applied in the examples were used as commercially available formulations which have been diluted with deionized water to a suitable concentration.
(§3) Carfentrazone (commercial product name: Aim) was used as an emulsifiable concentrate having an active ingredient concentration of 240 g/l. Glufosinate (commercial product name: Liberty) was used as an aqueous soluble liquid of glufosinate ammonium having an active ingredient concentration of 280 g/l. Adjuvants of ammonium sulfate (AMS) and non-ionic surfactant (NIS) were added in all treatments. AMS and NIS were AMS Liquid and Induce at rates of 1680 g/ha and 0.25% (v/v), respectively.
(§4) The test period extended over 28 days after treatment (DAT). During this time, the plants were tended and their response to the individual treatments was evaluated.
(§5) The evaluation for the damage caused by the chemical compositions was carried out using a scale from 0 to 100%, compared to the untreated control plants. Here, 0 means no damage and 100 means complete destruction of the plants.
(§6) The plants used in the greenhouse experiments belonged to the following species:
(§7) 22 ff. E=X+Y−(X·Y/100) • where X=effect in percent using carfentrazone at an application rate a; • Y=effect in percent using glufosinate at application rate b; • E=expected effect (in %) of carfentrazone plus glufosinate at application rates a+b.
(§8) The value E corresponds to the effect (plant damage or injury) which is to be expected if the activity of the individual compounds is just additive. If the observed effect is higher than the value E calculated according to Colby, a synergistic effect is present.

The test system of another test is Chenopodium album. The experiment in a line: Greenhouse post-emergence herbicidal activity on Chenopodium album. Format: in vivo. The conditions noted are these: 0.654 g ai/ha.
Excerpt: as §1, §2, §3, §4, §5, §6, §7, §8

`CCOC(=O)C(Cl)Cc1cc(-n2nc(C)n(C(F)F)c2=O)c(F)cc1Cl` (stereo not drawn) [Carfentrazone, carfentrazone-ethyl]: the “Solo Carfentrazone % activity” value with Echinochloa crus-galli (7 DAT) is reported as 30%; in the test with Echinochloa crus-galli (14 DAT) it was 18%; with Echinochloa crus-galli (21 DAT), 25%; in the test with Chenopodium album (7 DAT, scale 0 (no damage) to 100 (complete destruction), AMS + NIS added) it was 30%; in the test with Chenopodium album (14 DAT, scale 0-100, AMS + NIS added), 30%; with Chenopodium album (21 DAT, scale 0-100, AMS + NIS added) it was 35%.
